# Experiments:
# Type in all cases: cell-based, human
# [1] = test system: HeLa cells cotransfected with GFP-Parkin; assay: mitochondrial degradation assay / DUB cDNA overexpression screen (Tom20 staining); conditions: CCCP 20 μM, 24 hours
# Procedure: To identify regulators of mitophagy, individual cDNAs from a FLAG-tagged DUB library were cotransfected into HeLa cells with GFP-Parkin using Lipofectamine 2000 (Invitrogen) (1:3 DUB-FLAG: GFP-Parkin cDNA ratio). After 24 hours of expression, cells were treated with […] CCCP for 24 hours, and fixed and stained using anti-Tom20 (Santa Cruz Biotechnology), anti-GFP (Aves Labs) and anti-FLAG (Sigma) primary antibodies. Following staining with secondary antibodies, images of random fields were acquired with a Leica SP5 Laser Scanning Confocal Microscope using a 40×/1.25 oil-objective (0.34 μm/pixel resolution, 1 μm confocal z-step size). Percent of GFP-Parkin and FLAG-DUB cotransfected cells containing Tom20 staining was scored blindly.
# To identify DUBs that regulate mitochondria clearance, a FLAG-tagged human DUB cDNA library (97 DUBs) was screened in an established mitochondrial degradation assay (Narendra et al., J. Cell Biol., 183: 795-803 (2008)). In this assay, mitochondria depolarization induced by protonophore carbonyl cyanide 3-chlorophenylhydrazone (CCCP, 20 μM, 24 hours) results in marked loss of mitochondria in cultured cells overexpressing Parkin (as measured by staining for mitochondria outer membrane protein marker Tom20). […] Individual FLAG-tagged DUB cDNAs were cotransfected with GFP-Parkin, and their effects on CCCP-induced mitochondrial (Tom20) clearance were measured. […]
# [2] = test system: GFP-Parkin stable cell lines (HEK-293); assay: immunoblot of mitochondrial protein levels during CCCP treatment; conditions: CCCP 5 μM, t=6 h, p<0.01
# Procedure: For total lysate experiments, cells were lysed after 24 hours in SDS sample buffer (Invitrogen) containing sample reducing agent (Invitrogen) and boiled at 95° C. for 10 minutes. Total lysates were resolved by SDS-PAGE and analyzed by immunoblotting. For immunoprecipitation experiments, cells were treated with 5 μM MG132 and the indicated concentrations and durations of CCCP at 24 hours (overexpression experiments) or 6 days (knockdown experiments) in 0.5% SDS in Tris-Buffered Saline (10 mM TRIS, 150 mM NaCl, pH 8.0) and boiled at 70° C. for 10 minutes. […] Inputs and anti-HA immunoprecipitates were resolved by SDS-PAGE and analyzed by immunoblotting.
# Beyond ubiquitination, does USP30 regulate protein turnover in addition to ubiquitination? […] In contrast to the outer membrane proteins, mitochondrial matrix protein HSP60 and inner membrane protein TIMM8A were unchanged by CCCP within this time frame. Overexpression of USP30 in GFP-Parkin stable cells greatly attenuated or abolished the CCCP-induced depletion of MIRO and Tom20 (FIG. 6G, H). Stabilization by USP30 overexpression appeared to be relatively specific for MIRO and Tom20, since CCCP-induced degradation of other mitochondria membrane proteins (MFN-1, TOM70, VDAC) was unaffected (FIG. 6G, H).
# HEK-293 cells = assay: global ubiquitination (K-GG) mass spectrometry, USP30 knockdown; conditions: CCCP 5 μM, 2 hours
# Procedure: (§1) To determine Parkin substrates, HEK-293 GFP-Parkin inducible cells were treated with doxycycline for 24 hours, and then treated with 5 μM CCCP or DMSO vehicle control for 2 hours. To determine USP30 substrates, HEK-293T cells were transfected with human USP30 shRNA using Lipofectamine 2000 (Invitrogen) for 6 days, then treated as before. […] Preparation of cellular lysates and immunoprecipitation
# To identify Parkin substrates, HEK 293T cells stably expressing inducible GFP-Parkin (human) were induced using doxycycline (1 μg/mL) for 24 hours, then treated with 5 μM CCCP or DMSO vehicle control for 2 hours. To determine USP30 substrates, HEK 293T cells were transfected with human USP30 shRNA using Lipofectamine 2000 (Invitrogen) for 6 days, then treated as above.
# Immunoaffinity isolation and mass spectrometry methods were used to enrich and identify K-GG peptides from digested protein lysates as previously described (Xu et al., Nat. Biotech., 28: 868-873 (2010); Kim et al., Mol. Cell, 44: 325-340 (2011)). Cell lysates were prepared in lysis buffer (8M urea 20 mM HEPES pH 8.0 with 1 mM sodium orthovanadate, 2.5 mM sodium pyrophosphate, 1 mM ß-glycerophosphate) by brief sonication on ice. Protein samples (60 mg) were reduced at 60° C. for 20 min in 4.1 mM DTT, cooled 10 min on ice, and alkylated with 9.1 mM iodoacetamide for 15 min at room temperature in the dark. […]
# USP30 = USP30 knockdown efficiency in HEK-293 cells
# Procedure: as §1
# Since Parkin and USP30 antagonistically regulate mitochondrial degradation, it was hypothesized that this E3 ligase and DUB act on some common substrates. To identify Parkin and USP30 substrates, global ubiquitination in cells was analyzed by mass spectrometry (MS) following immunoaffinity enrichment of ubiquitinated peptides from trypsin-digested extracts using the ubiquitin branch-specific (K-GG) antibodies. Global ubiquitination was analyzed and quantified by MS in HEK-293 cells in two different sets of conditions: 1) inducible Parkin overexpression, or 2) USP30 knockdown (USP30 knockdown efficiency was 85±5% (see FIG. 7C)). In each set, cells were treated with CCCP (5 μM, 2 hours) or vehicle control (DMSO).
# [3] = test system: GFP-Parkin expressing stable HEK-293 cells; assay: HA-ubiquitin immunoprecipitation and immunoblot of MIRO and Tom20; conditions: HA-ubiquitin immunoprecipitates, CCCP 5 μM, 2 hours
# Procedure: For total lysate experiments, transfected HEK-293 cells were lysed at 24 hours post-transfection in SDS sample buffer (Invitrogen) containing sample reducing agent (Invitrogen). For immunoprecipitation experiments, cells were lysed at 24 hours (overexpression experiments) or 6 days (knockdown experiments) post-transfection in TBS buffer containing 0.5% SDS, and lysates were diluted with a buffer containing 1% Triton-X-100 and protease and phosphatase inhibitors. Ubiquitinated proteins were immunoprecipated from lysates of HA-ubiquitin transfected cells with anti-HA affinity matrix beads (Roche Applied Science). Inputs and precipitates were resolved by SDS-PAGE and analyzed by immunoblotting.
# For total lysate experiments, cells were lysed after 24 hours in SDS sample buffer (Invitrogen) containing sample reducing agent (Invitrogen) and boiled at 95° C. for 10 minutes. Total lysates were resolved by SDS-PAGE and analyzed by immunoblotting. For immunoprecipitation experiments, cells were treated with 5 μM MG132 and the indicated concentrations and durations of CCCP at 24 hours (overexpression experiments) or 6 days (knockdown experiments) in 0.5% SDS in Tris-Buffered Saline (10 mM TRIS, 150 mM NaCl, pH 8.0) and boiled at 70° C. for 10 minutes. […] Inputs and anti-HA immunoprecipitates were resolved by SDS-PAGE and analyzed by immunoblotting. […]
Compound,Parkin-transfected cells lacking Tom20 staining [1] [%],decrease in Tom20 protein level [2],USP30 shRNA+CCCP/CCCP ubiquitination ratio for Tom20 (HEK-293 cells; p=0.005),USP30 shRNA+CCCP/CCCP ubiquitination ratio for MIRO (HEK-293 cells; p=0.019),USP30 knockdown efficiency (USP30) [%],increase in level of ubiquitinated MIRO [3] [fold]
"N#CC(C#N)=NNc1cccc(Cl)c1 [CCCP, carbonyl cyanide 3-chlorophenylhydrazone]",> 80,10+/−1%,–,–,–,–
"CCAGAGTCCTGTTCGATTT ((CCAGAGTCCTGTTCGATTT; as printed in the source, key not given here) [human USP30 shRNA]",–,–,3.52,2.95,85±5,~2.5

# Source: patent publication US20200172911A1, “USP30 INHIBITORS AND METHODS OF USE” (Genentech, Inc., priority 2012, published 2020)
